Assay results taken from US20050201991A1, “Stem cell culture” (priority 2002, published 2005).

System: NTERA2 human EC cells
Assay: Two fluorochrome flow cytometric analysis of FGF-4 reporter with SSEA-3 labelling on differentiation
Assay type: cell-based
Conditions: retinoic acid treated versus undifferentiated NTERA2 cells
Protocol: Variations of these vectors including pTK-GFP, p5FGF4EN-GFP and p5FGF4EN-Bact-GFP with WES site linking an antibiotic selection marker, for example puromycin or neonmycin resistance, to the expression of GFP were also created (IRESantibiotic selection marker sequences were inserted in the Notl cloning site immediately 3′ to the GFP sequence).
The human embryonal carcinoma (EC) cell line, NTERA2 cl D1, was cultured in DMEM with 10% fetal calf serum as previously described (Andrews et al 1984). […]
Human EC and ES cells were transfected by the same protocol: After incubation at 37° C. overnight the cells were transfected, following the manufacturer's protocol, as follows: 9.5 μg DNA was diluted into 300 μl 0.15 M NaCl and mixed with 21 μl ExGen 500 (MBI Fermentas) and vortexed. […] After incubating for 6-12 hours at 37 C, the medium was removed and the cells fed with fresh medium and fluorescence observed by microscopy under UV epi-illumination.
Cell surface antigen expression of cultured cells was assessed by indirect immunofluorescence detected by flow cytofluorimetry, after harvesting the cultures as single cell suspensions using trypsin-EDTA, as described previously (Andrews et al 1987, Fenderson et al 1987). […] In some experiments, cells that were either positive or negative for SSEA3 and SSEA1 were isolated by fluorescence activated cell sorting (Andrews et al 1987).

For `CC1=C(/C=C/C(C)=C/C=C/C(C)=C/C(=O)O)C(C)(C)CCC1` [retenoic acid, all-trans-retinoic acid], the “GFP expression from FGF-4 reporter” value (p5FGF4EN-GFPIP reporter) was “greatly reduced” and the SSEA-3 expression was “reduction”.
